# Values joined by “and” are separate entries in the source; they are usually repeats but may differ in a detail not shown here. Identical values can stand only once.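 Exposure lasted 48 hours, with cells grown in 96-well plates and compounds tested at five concentrations. GI50: concentration for 50% inhibition of growth. The concentration for full growth arrest is given as TGI.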
# Columns and labels:
# Test in all cases: NCI tumour cell line growth inhibition, 48 h
# SK-MEL-28 melanoma = test system: SK-MEL-28 melanoma
# NCI/ADR-RES ovarian = test system: NCI/ADR-RES ovarian
# SNB-75 CNS = test system: SNB-75 CNS
# CCRF-CEM leukemia = test system: CCRF-CEM leukemia
# EKVX NSCLC = test system: EKVX NSCLC
# HT29 colon = test system: HT29 colon
# MCF7 breast = test system: MCF7 breast
# MALME-3M melanoma = test system: MALME-3M melanoma
# HOP-92 NSCLC = test system: HOP-92 NSCLC
# HL-60(TB) leukemia = test system: HL-60(TB) leukemia
smiles,measurement,setting,value
CCCS(=O)OC1C(C2COC(C)(C)O2)OC2OC(C)(C)OC21 (stereo unspecified),TGI,SK-MEL-28 melanoma,32.7 µM
same,TGI,NCI/ADR-RES ovarian,46.1 µM
same,TGI,SNB-75 CNS,> 48.8 µM
same,TGI,CCRF-CEM leukemia,21.5 µM
same,TGI,EKVX NSCLC,32 µM
same,TGI,HT29 colon,17.9 µM
same,TGI,MCF7 breast,27.3 µM
same,TGI,MALME-3M melanoma,18 µM
same,TGI,HOP-92 NSCLC,22.8 µM
CC1(C)CN=C(c2ccc3ccccc3c2O)N1,TGI,SK-MEL-28 melanoma,> 100 µM
same,TGI,NCI/ADR-RES ovarian,> 100 µM
same,TGI,SNB-75 CNS,> 100 µM
same,TGI,CCRF-CEM leukemia,> 100 µM
same,TGI,EKVX NSCLC,> 100 µM
same,TGI,MCF7 breast,> 100 µM
same,TGI,HOP-92 NSCLC,> 100 µM
same,TGI,HL-60(TB) leukemia,> 100 µM
COc1ccc(/C(Cl)=C(\C=O)c2ccc(Cl)cc2)cc1,TGI,SNB-75 CNS,26.2 µM
same,TGI,CCRF-CEM leukemia,11.4 µM
same,TGI,EKVX NSCLC,> 100 µM
same,TGI,HT29 colon,15.6 µM
same,TGI,MALME-3M melanoma,> 100 µM
same,TGI,HL-60(TB) leukemia,16.6 µM
O=C(c1ccccc1)c1ccc2c(c1)N=C(c1ccc(Cl)c(Cl)c1)CC(c1ccc3ccccc3c1)N2 (stereo unspecified),TGI,SK-MEL-28 melanoma,> 100 µM
same,TGI,SNB-75 CNS,> 100 µM
same,TGI,CCRF-CEM leukemia,> 100 µM
same,TGI,EKVX NSCLC,> 100 µM
same,TGI,HT29 colon,> 100 µM
same,TGI,HOP-92 NSCLC,> 100 µM
same,TGI,HL-60(TB) leukemia,> 100 µM
NC(=S)NS(=O)(=O)c1ccc(Cl)cc1Cl,TGI,SK-MEL-28 melanoma,> 100 µM
same,TGI,NCI/ADR-RES ovarian,> 100 µM
same,TGI,SNB-75 CNS,> 100 µM
same,TGI,CCRF-CEM leukemia,> 100 µM
same,TGI,EKVX NSCLC,> 100 µM
same,TGI,HT29 colon,> 100 µM
same,TGI,MALME-3M melanoma,> 100 µM
same,TGI,HOP-92 NSCLC,> 100 µM
same,TGI,HL-60(TB) leukemia,> 100 µM
O=C(O)C1(Cc2ccc3c(c2)CCC3)Cc2cc3c(cc2C1)CCC3,TGI,SK-MEL-28 melanoma,> 100 µM
same,TGI,SNB-75 CNS,> 100 µM
same,TGI,CCRF-CEM leukemia,> 100 µM
same,TGI,EKVX NSCLC,> 100 µM
same,TGI,HT29 colon,> 100 µM
same,TGI,MCF7 breast,> 100 µM
same,TGI,MALME-3M melanoma,> 100 µM
same,TGI,HOP-92 NSCLC,> 100 µM
same,TGI,HL-60(TB) leukemia,> 100 µM
Cn1c(=O)n2n(c1=O)C1C(=CC2)C2C=CC1n1c(=O)n(C)c(=O)n12 (stereo unspecified),TGI,SK-MEL-28 melanoma,> 100 µM
same,TGI,NCI/ADR-RES ovarian,> 100 µM
same,TGI,SNB-75 CNS,> 100 µM
same,TGI,CCRF-CEM leukemia,> 100 µM
same,TGI,EKVX NSCLC,> 100 µM
same,TGI,HT29 colon,> 100 µM
same,TGI,MALME-3M melanoma,> 100 µM
same,TGI,HOP-92 NSCLC,> 100 µM
same,TGI,HL-60(TB) leukemia,> 100 µM
Cc1cc2nnn(C3CCCO3)c2cc1C (stereo unspecified),TGI,NCI/ADR-RES ovarian,> 100 µM
same,TGI,SNB-75 CNS,> 100 µM
same,TGI,CCRF-CEM leukemia,> 100 µM
same,TGI,EKVX NSCLC,> 100 µM
same,TGI,HT29 colon,> 100 µM
same,TGI,MCF7 breast,> 100 µM
same,TGI,MALME-3M melanoma,> 100 µM
same,TGI,HL-60(TB) leukemia,> 100 µM
COC(=O)C[C@H]1[C@]2(C)C3=C(C)[C@H](c4ccoc4)CC3O[C@@H]2[C@@H]2OC(=O)[C@]3(C)CCC(=O)[C@@]1(C)[C@@H]23 (stereo partly specified),TGI,SK-MEL-28 melanoma,> 100 µM
same,TGI,NCI/ADR-RES ovarian,> 100 µM
same,TGI,SNB-75 CNS,> 100 µM
same,TGI,CCRF-CEM leukemia,45.1 µM
same,TGI,HT29 colon,> 100 µM
same,TGI,MCF7 breast,> 100 µM
same,TGI,MALME-3M melanoma,> 100 µM
same,TGI,HOP-92 NSCLC,> 100 µM
same,TGI,HL-60(TB) leukemia,54.8 µM
CC(=O)N/N=C1\NN(C(C)=O)C2(S1)C(=O)Nc1ccccc12 (stereo unspecified),TGI,SK-MEL-28 melanoma,> 100 µM
same,TGI,NCI/ADR-RES ovarian,> 100 µM
same,TGI,SNB-75 CNS,> 100 µM
same,TGI,CCRF-CEM leukemia,> 100 µM
same,TGI,EKVX NSCLC,> 100 µM
same,TGI,HT29 colon,> 100 µM
same,TGI,MCF7 breast,> 100 µM
same,TGI,MALME-3M melanoma,> 100 µM
same,TGI,HL-60(TB) leukemia,> 100 µM
CN(CCc1ccccn1)C(=S)N/N=C/c1ccccn1,TGI,SK-MEL-28 melanoma,> 100 µM
same,TGI,NCI/ADR-RES ovarian,18 µM
same,TGI,SNB-75 CNS,> 100 µM
same,TGI,CCRF-CEM leukemia,< 0.01 µM
same,TGI,HT29 colon,43.1 µM
same,TGI,MCF7 breast,> 100 µM
same,TGI,MALME-3M melanoma,8.81 µM
same,TGI,HOP-92 NSCLC,3.66 µM
same,TGI,HL-60(TB) leukemia,< 0.01 µM
C#Cc1ccccc1C(=O)OC,TGI,SK-MEL-28 melanoma,> 100 µM
same,TGI,SNB-75 CNS,> 100 µM
same,TGI,CCRF-CEM leukemia,> 100 µM
same,TGI,EKVX NSCLC,> 100 µM
same,TGI,HT29 colon,> 100 µM
same,TGI,MALME-3M melanoma,> 100 µM
same,TGI,HOP-92 NSCLC,> 100 µM
same,TGI,HL-60(TB) leukemia,> 100 µM
Cc1cc(=O)[nH]c(S(=O)(=O)NC(=S)Nc2ccc(Br)cc2)n1,TGI,SK-MEL-28 melanoma,> 100 µM
same,TGI,NCI/ADR-RES ovarian,> 100 µM
same,TGI,SNB-75 CNS,> 100 µM
same,TGI,EKVX NSCLC,> 100 µM
same,TGI,HT29 colon,> 100 µM
same,TGI,MALME-3M melanoma,> 100 µM
same,TGI,HOP-92 NSCLC,> 100 µM
same,TGI,HL-60(TB) leukemia,> 100 µM
CN(C)CCCN1C(=O)N(CCCN(C)C)c2c3cc(O)ccc3nc3c([N+](=O)[O-])ccc1c23,TGI,SK-MEL-28 melanoma,> 100 µM
same,TGI,NCI/ADR-RES ovarian,> 100 µM
same,TGI,SNB-75 CNS,> 100 µM
same,TGI,HT29 colon,27.2 µM
same,TGI,MCF7 breast,40.4 µM
same,TGI,MALME-3M melanoma,33.9 µM
same,TGI,HOP-92 NSCLC,36.7 µM
CCOC(=O)Cn1c(C)nc2nn(Cc3ccccc3)cc2c1=O,TGI,SK-MEL-28 melanoma,> 100 µM
same,TGI,NCI/ADR-RES ovarian,> 100 µM
same,TGI,CCRF-CEM leukemia,> 100 µM
same,TGI,EKVX NSCLC,> 100 µM
same,TGI,HT29 colon,> 100 µM
same,TGI,MCF7 breast,> 100 µM
same,TGI,MALME-3M melanoma,> 100 µM
same,TGI,HOP-92 NSCLC,> 100 µM
CC1=NN(C(=O)Cc2ccccc2)C(=O)/C1=C\c1cccc(O)c1,TGI,SK-MEL-28 melanoma,> 100 µM
same,TGI,SNB-75 CNS,> 100 µM
same,TGI,CCRF-CEM leukemia,> 100 µM
same,TGI,EKVX NSCLC,> 100 µM
same,TGI,HT29 colon,> 100 µM
same,TGI,MALME-3M melanoma,> 100 µM
same,TGI,HL-60(TB) leukemia,> 100 µM
O=c1c2cc(Cl)ccc2n2nnc3ccc(NCCNCCO)c1c32,TGI,SK-MEL-28 melanoma,3.26 µM
same,TGI,SNB-75 CNS,0.286 µM
same,TGI,CCRF-CEM leukemia,4.44 µM
same,TGI,EKVX NSCLC,4.44 µM
same,TGI,HT29 colon,2.74 µM
same,TGI,MCF7 breast,9.46 µM
same,TGI,MALME-3M melanoma,5.67 µM
same,TGI,HOP-92 NSCLC,6.1 µM
same,TGI,HL-60(TB) leukemia,9.77 µM
Nc1ncnc2c(C3OC(CO)C(O)C3O)c[nH]c12 (stereo unspecified),GI50,SK-MEL-28 melanoma,0.0452 µM
same,TGI,SK-MEL-28 melanoma,0.51 µM and 0.734 µM
same,TGI,SNB-75 CNS,0.0984 µM and 0.459 µM
same,TGI,CCRF-CEM leukemia,0.0988 µM and < 0.0135 µM
same,GI50,EKVX NSCLC,< 0.0171 µM
same,TGI,EKVX NSCLC,0.415 µM and 0.274 µM
same,TGI,HT29 colon,0.343 µM and 1.21 µM
same,TGI,MCF7 breast,0.0807 µM
same,GI50,MALME-3M melanoma,0.011 µM
same,TGI,MALME-3M melanoma,0.0868 µM and 0.0571 µM
same,GI50,HOP-92 NSCLC,0.00215 µM
same,TGI,HOP-92 NSCLC,0.00836 µM and 0.0664 µM
same,GI50,HL-60(TB) leukemia,0.000721 µM
Brc1ccc2[nH]cc(-c3nc(-c4c[nH]c5ccncc45)cs3)c2c1,GI50,SK-MEL-28 melanoma,1.73 µM
same,TGI,SK-MEL-28 melanoma,3.13 µM
same,GI50,SNB-75 CNS,1.22 µM
same,TGI,SNB-75 CNS,2.53 µM
same,GI50,CCRF-CEM leukemia,2.24 µM
same,TGI,CCRF-CEM leukemia,5.14 µM
same,GI50,MALME-3M melanoma,2.14 µM
same,TGI,MALME-3M melanoma,3.72 µM
O=[N+]([O-])c1ccc(-c2nc3ccccc3o2)cc1,TGI,SK-MEL-28 melanoma,> 100 µM
same,TGI,NCI/ADR-RES ovarian,> 100 µM
same,TGI,SNB-75 CNS,> 100 µM
same,TGI,CCRF-CEM leukemia,> 100 µM
same,TGI,EKVX NSCLC,> 100 µM
same,TGI,MCF7 breast,> 100 µM
same,TGI,MALME-3M melanoma,> 100 µM
same,TGI,HOP-92 NSCLC,> 100 µM
CC[N+]1(C)CCC(O)(/C=C/c2ccc(Cl)c(Cl)c2)C(C(=O)/C=C/c2ccc(Cl)c(Cl)c2)C1 (stereo unspecified),TGI,SK-MEL-28 melanoma,4.37 µM
same,TGI,NCI/ADR-RES ovarian,6.63 µM
same,TGI,SNB-75 CNS,12.2 µM
same,TGI,EKVX NSCLC,23.3 µM
same,TGI,HT29 colon,4.53 µM
same,TGI,MCF7 breast,6.52 µM
same,TGI,MALME-3M melanoma,4.6 µM
same,TGI,HOP-92 NSCLC,7.82 µM
O=c1oc2ccccc2cc1-c1nc2ccccc2s1,TGI,SK-MEL-28 melanoma,> 66 µM
same,TGI,SNB-75 CNS,17.4 µM
same,TGI,EKVX NSCLC,39.2 µM
same,TGI,HT29 colon,25.8 µM
same,TGI,MCF7 breast,6.53 µM
same,TGI,MALME-3M melanoma,9.2 µM
same,TGI,HOP-92 NSCLC,22.3 µM
same,TGI,HL-60(TB) leukemia,> 100 µM
Cc1ccc(NC(=O)NC23CC4CC(CC(F)(C4)C2)C3)cc1,TGI,SK-MEL-28 melanoma,> 100 µM
same,TGI,SNB-75 CNS,87.1 µM
same,TGI,CCRF-CEM leukemia,> 100 µM
same,TGI,EKVX NSCLC,> 100 µM
same,TGI,HT29 colon,> 100 µM
same,TGI,MALME-3M melanoma,> 100 µM
same,TGI,HOP-92 NSCLC,> 100 µM
same,TGI,HL-60(TB) leukemia,> 100 µM
CC1=C(C(=O)OC(C)C)C(c2cccc([N+](=O)[O-])c2)C(C(=O)OC(CO[N+](=O)[O-])CO[N+](=O)[O-])=C(C)N1 (stereo unspecified),TGI,SK-MEL-28 melanoma,33.7 µM
same,TGI,NCI/ADR-RES ovarian,> 25.2 µM
same,TGI,SNB-75 CNS,43.3 µM
same,TGI,CCRF-CEM leukemia,> 20.1 µM
same,TGI,EKVX NSCLC,> 27.7 µM
same,TGI,HT29 colon,21 µM
same,TGI,MCF7 breast,1.12 µM
same,TGI,MALME-3M melanoma,> 100 µM
same,TGI,HOP-92 NSCLC,7.38 µM

# — PubChem BioAssay (NCI)
